What was measured:
[1] = molecular target: T1, Prostaglandin E2 receptor EP3 subtype (Homo sapiens, UniProt P43115); assay: Binding affinity for human prostanoid EP3 receptor
T1 sequence (P43115 whole entry): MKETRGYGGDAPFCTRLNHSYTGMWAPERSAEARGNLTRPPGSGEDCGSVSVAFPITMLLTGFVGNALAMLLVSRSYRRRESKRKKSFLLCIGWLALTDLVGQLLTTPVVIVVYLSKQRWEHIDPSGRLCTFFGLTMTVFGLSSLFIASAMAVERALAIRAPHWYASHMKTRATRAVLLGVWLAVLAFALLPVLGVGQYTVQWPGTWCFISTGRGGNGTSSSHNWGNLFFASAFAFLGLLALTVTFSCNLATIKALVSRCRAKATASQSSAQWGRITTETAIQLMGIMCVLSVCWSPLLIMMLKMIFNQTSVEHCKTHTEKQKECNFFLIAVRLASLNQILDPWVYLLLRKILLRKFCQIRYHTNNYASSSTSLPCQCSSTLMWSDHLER

[2] = molecular target: Prostaglandin E2 receptor EP2 subtype (Homo sapiens, UniProt P43116); assay: Binding affinity for human prostanoid EP2 receptor
[3] = molecular target: Prostaglandin E2 receptor EP4 subtype (Homo sapiens, UniProt P35408); assay: Binding affinity for human prostanoid EP4 receptor
Chain of Prostaglandin E2 receptor EP4 subtype (P35408 whole entry): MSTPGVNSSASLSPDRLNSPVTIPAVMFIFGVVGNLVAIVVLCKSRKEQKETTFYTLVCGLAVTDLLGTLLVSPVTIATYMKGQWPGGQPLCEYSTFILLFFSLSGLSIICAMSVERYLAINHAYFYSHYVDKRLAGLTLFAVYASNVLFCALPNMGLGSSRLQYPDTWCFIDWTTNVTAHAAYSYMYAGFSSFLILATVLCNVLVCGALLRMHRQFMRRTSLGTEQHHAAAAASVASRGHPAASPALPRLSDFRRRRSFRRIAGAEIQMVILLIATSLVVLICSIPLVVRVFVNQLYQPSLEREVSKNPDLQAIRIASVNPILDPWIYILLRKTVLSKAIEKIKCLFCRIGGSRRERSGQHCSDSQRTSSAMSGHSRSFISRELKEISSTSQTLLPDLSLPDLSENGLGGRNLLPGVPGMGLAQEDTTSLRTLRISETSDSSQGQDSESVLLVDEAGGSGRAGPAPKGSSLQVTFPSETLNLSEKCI

Chain of Prostaglandin E2 receptor EP2 subtype (P43116 whole entry): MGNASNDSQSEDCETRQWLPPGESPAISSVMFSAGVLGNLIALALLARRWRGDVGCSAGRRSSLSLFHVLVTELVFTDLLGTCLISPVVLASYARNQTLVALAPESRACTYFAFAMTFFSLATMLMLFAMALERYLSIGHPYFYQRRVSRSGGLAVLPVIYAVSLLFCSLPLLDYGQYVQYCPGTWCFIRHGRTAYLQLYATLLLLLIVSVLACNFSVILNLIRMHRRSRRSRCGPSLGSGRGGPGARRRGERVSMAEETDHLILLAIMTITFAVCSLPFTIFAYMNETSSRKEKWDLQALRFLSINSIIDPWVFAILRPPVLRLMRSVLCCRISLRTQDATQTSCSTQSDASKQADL

- Ki [1]: 9 nM
- Ki [2]: 860 nM
- Ki [3]: 2000 nM
SMILES: Cc1cccc(C/C=C/c2ccccc2/C=C/C(=O)O)c1OCc1ccccc1
